According to US20230026167A1, “COSMETIC OR DERMATOLOGICAL COMPOSITION ACTING IN PARTICULAR ON THE EFFECTS OF BLUE LIGHT ON SKIN AND ITS APPENDAGES, AND ASSOCIATED USES” (Sederma, priority 2019, published 2023):
* marks the point of attachment. Palmitoyl = CCCCCCCCCCCCCCCC(=O)*

System: IL-6
Assay: Synergy test: IL-6 production on HK following blue light irradiation (ELISA)
Format: cell-based, human
Settings: blue light 30.2 J/cm2, 24 hours contact, compound taken separately, nsd
Protocol: HK are cultivated in their culture medium. After rinsing with PBS, the cells are returned to this same buffer and exposed to blue light at a non-cytotoxic dose of 30.2 J/cm^2. The exhibition system consists of a set of 30 blue LEDs spread over a 30 cm^2 flat surface. The photon flux reaches the cells perpendicularly. The temperature is controlled, and all the cells are in the same enclosure (37° C./5% CO2). The emission spectrum is centered on 420 nm. The cells are then brought into contact with each of the invention compounds taken separately or with the composition according to the invention for 24 hours. The culture media are then harvested, and the IL-6 concentrations assayed by ELISA method. An assay on the cell layers is used to reduce to the number of cells.

Palmitoyl-GQPR-OH [Pal-GQPR]
% of variation in IL-6 production (15 ppm): −7%

O=c1cc(-c2ccccc2)oc2cc(O)cc(O)c12 [Chrysine, 5,7-dihydroxyflavone]
% of variation in IL-6 production (1.6 ppm): −10%
